For orientation: Kd means the concentration at which binding is half-saturated.

The record followed here is ChEMBL document CHEMBL3991601, “The target landscape of clinical kinase drugs” (Science, 2017).

The target in assay [1] is T1, Breakpoint cluster region protein (Homo sapiens, UniProt P11274).
T1 sequence (P11274 whole entry): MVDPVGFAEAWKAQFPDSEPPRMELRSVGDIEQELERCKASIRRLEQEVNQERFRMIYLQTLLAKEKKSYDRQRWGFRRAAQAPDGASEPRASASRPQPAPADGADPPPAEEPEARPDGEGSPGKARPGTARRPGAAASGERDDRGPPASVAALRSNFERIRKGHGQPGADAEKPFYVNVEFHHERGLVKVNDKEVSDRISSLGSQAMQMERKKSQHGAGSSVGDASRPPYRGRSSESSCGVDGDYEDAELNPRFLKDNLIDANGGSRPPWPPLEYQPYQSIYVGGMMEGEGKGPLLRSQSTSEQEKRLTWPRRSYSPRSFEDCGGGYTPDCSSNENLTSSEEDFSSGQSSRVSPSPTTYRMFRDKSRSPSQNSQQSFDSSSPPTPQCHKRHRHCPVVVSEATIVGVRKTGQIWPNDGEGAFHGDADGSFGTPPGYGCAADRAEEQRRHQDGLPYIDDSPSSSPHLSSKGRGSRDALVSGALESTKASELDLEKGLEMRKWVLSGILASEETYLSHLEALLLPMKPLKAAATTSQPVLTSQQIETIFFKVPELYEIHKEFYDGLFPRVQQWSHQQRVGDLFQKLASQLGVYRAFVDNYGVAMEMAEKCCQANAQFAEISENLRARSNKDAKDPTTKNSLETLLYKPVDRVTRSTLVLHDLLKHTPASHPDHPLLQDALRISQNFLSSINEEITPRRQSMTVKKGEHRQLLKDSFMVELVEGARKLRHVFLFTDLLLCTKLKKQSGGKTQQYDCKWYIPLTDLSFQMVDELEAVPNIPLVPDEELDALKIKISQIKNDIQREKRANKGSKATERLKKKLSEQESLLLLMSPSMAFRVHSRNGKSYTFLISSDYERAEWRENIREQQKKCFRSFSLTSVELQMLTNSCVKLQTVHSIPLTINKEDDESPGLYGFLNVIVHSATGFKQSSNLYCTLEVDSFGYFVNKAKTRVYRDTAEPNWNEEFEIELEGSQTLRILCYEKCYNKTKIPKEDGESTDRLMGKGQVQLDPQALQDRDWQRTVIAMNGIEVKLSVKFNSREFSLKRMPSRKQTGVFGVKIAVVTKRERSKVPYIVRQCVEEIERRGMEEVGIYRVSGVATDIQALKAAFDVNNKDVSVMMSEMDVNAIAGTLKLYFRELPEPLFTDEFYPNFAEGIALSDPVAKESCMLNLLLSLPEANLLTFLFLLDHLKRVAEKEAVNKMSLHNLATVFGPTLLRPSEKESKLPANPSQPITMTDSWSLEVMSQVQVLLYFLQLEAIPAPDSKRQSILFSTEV

The target of assay [2] is T2, Dual specificity mitogen-activated protein kinase kinase 3 (Homo sapiens, UniProt P46734).
T2 sequence (P46734 whole entry): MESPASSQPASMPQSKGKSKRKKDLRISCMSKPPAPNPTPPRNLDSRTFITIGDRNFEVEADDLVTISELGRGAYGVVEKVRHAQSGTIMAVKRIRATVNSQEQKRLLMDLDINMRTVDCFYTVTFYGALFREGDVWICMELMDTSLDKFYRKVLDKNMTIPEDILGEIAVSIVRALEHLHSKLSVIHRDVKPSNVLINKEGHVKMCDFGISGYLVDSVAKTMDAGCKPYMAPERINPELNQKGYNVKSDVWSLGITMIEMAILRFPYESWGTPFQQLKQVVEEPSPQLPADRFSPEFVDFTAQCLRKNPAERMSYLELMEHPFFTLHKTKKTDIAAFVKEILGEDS

Assay [3] addresses Mitogen-activated protein kinase 11 (Homo sapiens, UniProt Q15759).
The target in assay [4] is T3, Serine/threonine-protein kinase Nek9 (Homo sapiens, UniProt Q8TD19).
T3 sequence (Q8TD19 whole entry): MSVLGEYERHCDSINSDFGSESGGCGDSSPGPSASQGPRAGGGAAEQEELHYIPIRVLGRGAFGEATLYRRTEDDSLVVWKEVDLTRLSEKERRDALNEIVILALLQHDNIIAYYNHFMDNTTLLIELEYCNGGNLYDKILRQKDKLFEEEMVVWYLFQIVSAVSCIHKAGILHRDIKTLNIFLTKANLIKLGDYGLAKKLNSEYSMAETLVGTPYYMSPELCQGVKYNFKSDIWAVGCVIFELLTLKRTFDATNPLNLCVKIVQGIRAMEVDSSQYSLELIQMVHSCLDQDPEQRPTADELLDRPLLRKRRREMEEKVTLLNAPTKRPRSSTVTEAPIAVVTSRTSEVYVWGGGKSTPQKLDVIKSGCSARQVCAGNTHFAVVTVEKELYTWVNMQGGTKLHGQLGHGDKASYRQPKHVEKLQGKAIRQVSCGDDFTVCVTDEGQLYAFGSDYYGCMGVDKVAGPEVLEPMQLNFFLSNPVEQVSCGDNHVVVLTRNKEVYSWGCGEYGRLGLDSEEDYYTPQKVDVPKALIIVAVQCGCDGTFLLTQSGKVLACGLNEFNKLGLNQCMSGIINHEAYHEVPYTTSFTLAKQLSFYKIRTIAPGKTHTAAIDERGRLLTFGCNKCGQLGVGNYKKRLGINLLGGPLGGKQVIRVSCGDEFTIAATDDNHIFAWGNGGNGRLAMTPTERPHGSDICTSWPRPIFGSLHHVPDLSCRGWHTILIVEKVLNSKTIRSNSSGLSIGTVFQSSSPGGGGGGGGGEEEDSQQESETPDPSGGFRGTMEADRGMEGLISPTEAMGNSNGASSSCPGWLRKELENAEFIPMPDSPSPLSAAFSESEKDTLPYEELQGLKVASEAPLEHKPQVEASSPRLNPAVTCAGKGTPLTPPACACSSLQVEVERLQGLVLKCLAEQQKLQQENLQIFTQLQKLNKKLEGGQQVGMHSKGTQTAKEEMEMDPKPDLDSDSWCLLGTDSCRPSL

Assay [5] has as its target cAMP-dependent protein kinase catalytic subunit beta (Homo sapiens, UniProt P22694).
Assay [6] concerns the target Ras-related protein Rab-6A (Homo sapiens, UniProt P20340).
The target in assay [7] is U5 small nuclear ribonucleoprotein 200 kDa helicase (Homo sapiens, UniProt O75643).
A further assay deals with DNA topoisomerase 2-beta (Homo sapiens, UniProt Q02880).
In assay [8] the target is Inosine-5'-monophosphate dehydrogenase 2 (Homo sapiens, UniProt P12268).
In assay [9] the target is Protein kinase C alpha type (Homo sapiens, UniProt P17252).

Activity calls are given as the source filed them.
Further: in the data inactive means no Kd found up to 30 µM.

Sequence of U5 small nuclear ribonucleoprotein 200 kDa helicase (O75643 whole entry): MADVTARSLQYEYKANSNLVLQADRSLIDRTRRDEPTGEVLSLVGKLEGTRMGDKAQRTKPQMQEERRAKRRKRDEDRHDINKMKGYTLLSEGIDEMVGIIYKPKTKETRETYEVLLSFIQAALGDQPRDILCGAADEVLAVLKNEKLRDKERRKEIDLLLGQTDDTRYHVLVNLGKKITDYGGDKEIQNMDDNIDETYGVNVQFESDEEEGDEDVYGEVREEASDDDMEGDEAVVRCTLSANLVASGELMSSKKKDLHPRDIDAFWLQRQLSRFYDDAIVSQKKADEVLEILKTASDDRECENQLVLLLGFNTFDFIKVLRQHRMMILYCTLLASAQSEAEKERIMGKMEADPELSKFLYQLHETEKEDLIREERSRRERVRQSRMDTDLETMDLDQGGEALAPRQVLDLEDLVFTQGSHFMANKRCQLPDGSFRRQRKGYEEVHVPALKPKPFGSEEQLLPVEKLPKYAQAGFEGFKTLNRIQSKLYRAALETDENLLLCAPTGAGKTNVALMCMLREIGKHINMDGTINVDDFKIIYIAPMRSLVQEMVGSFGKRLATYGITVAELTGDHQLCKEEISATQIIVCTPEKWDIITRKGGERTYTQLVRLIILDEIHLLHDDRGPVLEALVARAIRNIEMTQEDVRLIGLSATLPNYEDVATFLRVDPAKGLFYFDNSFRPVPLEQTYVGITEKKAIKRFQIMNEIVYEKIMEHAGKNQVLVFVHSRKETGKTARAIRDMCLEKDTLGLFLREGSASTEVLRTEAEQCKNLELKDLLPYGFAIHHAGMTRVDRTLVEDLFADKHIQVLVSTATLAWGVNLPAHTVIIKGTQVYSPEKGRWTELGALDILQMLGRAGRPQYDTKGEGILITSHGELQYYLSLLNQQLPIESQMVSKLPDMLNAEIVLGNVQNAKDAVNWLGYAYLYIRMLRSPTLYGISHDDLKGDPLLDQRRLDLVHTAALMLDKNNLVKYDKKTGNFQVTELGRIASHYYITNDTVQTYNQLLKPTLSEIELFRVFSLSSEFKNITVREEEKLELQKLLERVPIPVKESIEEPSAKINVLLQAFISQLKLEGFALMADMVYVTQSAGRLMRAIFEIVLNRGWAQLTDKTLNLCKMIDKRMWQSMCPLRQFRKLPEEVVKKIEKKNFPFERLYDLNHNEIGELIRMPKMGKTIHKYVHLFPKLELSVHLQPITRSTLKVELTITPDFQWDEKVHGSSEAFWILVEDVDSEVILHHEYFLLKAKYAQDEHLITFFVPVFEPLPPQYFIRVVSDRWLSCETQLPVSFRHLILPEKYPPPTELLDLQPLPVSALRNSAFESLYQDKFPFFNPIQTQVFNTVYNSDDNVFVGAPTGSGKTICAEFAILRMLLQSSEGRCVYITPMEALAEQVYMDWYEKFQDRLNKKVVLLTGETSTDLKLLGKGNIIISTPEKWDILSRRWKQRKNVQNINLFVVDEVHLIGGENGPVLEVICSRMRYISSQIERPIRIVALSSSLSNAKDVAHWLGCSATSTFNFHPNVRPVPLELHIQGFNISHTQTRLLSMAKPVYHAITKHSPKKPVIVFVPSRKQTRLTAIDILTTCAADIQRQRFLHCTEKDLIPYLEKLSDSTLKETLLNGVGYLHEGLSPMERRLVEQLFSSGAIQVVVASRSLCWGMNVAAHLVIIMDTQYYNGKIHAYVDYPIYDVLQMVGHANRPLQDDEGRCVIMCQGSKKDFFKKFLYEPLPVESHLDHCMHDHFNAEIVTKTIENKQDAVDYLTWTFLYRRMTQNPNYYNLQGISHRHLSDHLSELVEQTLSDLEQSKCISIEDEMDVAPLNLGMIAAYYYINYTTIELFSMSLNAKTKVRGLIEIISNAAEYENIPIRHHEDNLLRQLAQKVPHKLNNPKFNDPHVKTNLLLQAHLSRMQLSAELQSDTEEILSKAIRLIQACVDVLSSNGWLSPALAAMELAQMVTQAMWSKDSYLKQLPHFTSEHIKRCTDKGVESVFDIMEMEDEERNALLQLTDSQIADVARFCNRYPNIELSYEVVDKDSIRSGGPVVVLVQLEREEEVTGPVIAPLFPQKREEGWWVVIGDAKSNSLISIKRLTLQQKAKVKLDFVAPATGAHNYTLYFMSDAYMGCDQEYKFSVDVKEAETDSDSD
Sequence of Mitogen-activated protein kinase 11 (Q15759 whole entry): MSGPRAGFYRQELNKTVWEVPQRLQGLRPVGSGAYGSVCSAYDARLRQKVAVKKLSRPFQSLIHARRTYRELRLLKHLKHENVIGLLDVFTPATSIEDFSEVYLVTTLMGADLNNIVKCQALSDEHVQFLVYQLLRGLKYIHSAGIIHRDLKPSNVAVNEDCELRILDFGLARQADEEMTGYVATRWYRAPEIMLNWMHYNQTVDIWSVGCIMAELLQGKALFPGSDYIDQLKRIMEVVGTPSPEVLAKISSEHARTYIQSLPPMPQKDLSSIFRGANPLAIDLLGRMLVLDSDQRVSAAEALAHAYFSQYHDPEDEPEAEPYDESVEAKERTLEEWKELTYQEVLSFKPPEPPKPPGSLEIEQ
Sequence of DNA topoisomerase 2-beta (Q02880 whole entry): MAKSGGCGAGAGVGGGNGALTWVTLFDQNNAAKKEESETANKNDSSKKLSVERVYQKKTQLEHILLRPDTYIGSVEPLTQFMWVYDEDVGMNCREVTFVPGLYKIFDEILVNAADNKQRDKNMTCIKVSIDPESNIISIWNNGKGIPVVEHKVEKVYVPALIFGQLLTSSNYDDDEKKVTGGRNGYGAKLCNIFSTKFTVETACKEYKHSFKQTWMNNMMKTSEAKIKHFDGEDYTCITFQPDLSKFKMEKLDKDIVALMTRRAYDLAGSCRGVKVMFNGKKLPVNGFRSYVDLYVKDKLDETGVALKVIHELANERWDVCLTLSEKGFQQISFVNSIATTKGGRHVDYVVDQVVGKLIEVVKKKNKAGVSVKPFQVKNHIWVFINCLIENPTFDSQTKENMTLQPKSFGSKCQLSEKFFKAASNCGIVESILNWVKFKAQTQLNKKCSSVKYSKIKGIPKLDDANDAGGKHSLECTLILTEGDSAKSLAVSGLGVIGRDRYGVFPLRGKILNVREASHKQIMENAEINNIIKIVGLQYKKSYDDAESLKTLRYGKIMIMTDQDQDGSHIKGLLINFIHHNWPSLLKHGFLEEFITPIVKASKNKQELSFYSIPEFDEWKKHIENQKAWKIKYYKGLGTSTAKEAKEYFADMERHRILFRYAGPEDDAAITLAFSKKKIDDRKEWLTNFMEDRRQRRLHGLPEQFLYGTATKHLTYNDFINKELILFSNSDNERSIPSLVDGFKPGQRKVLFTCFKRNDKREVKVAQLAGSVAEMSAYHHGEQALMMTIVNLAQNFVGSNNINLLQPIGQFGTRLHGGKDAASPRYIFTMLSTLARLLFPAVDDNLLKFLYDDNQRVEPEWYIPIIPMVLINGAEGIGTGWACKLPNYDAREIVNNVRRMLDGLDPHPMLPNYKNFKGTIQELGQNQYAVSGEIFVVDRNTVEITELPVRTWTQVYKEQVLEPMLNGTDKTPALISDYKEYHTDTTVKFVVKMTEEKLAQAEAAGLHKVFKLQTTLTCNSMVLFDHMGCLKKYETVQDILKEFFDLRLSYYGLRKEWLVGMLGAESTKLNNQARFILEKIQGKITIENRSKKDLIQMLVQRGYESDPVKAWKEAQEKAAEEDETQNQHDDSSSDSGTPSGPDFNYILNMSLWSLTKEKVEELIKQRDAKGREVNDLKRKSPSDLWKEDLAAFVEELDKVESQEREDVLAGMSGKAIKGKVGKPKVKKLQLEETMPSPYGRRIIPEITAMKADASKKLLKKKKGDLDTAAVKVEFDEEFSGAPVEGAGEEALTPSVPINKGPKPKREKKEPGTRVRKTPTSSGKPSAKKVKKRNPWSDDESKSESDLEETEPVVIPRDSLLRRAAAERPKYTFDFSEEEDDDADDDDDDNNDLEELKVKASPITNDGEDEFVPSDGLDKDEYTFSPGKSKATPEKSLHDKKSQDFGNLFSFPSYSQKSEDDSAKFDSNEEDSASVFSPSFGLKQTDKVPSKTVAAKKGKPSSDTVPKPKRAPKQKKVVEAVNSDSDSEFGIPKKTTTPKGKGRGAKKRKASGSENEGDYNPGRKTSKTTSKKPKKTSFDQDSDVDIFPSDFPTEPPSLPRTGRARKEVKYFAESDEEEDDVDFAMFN
Sequence of Ras-related protein Rab-6A (P20340 whole entry): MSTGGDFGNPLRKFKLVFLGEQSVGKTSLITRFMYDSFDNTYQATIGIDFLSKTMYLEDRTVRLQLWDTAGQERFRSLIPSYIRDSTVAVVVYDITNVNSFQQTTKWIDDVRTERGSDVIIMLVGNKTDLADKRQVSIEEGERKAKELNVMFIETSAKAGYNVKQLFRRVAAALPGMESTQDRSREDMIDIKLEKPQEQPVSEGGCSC

`CC(=O)c1cnc2ccc(-c3cc(Cl)c(O)c(Cl)c3)nc2c1N[C@H]1CC[C@H](CN(C)C)CC1`: the dissociation constant Kd in assay [1] was 0.014 µM (active); in assay [2], > 30 µM (inactive); in [3], > 30 µM (inactive); in assay [4], > 30 µM (inactive); in assay [5], > 30 µM (inactive); in assay [6], > 30 µM (inactive). The Kd (in [7]; at DNA topoisomerase 2-beta) was > 30 µM (inactive) throughout.
As to `COc1cc(Nc2ncc3c(n2)-c2ccc(Cl)cc2C(c2c(F)cccc2OC)=NC3)ccc1C(=O)O` [ALISERTIB], the Kd in [1], in assay [8], in assay [2], in [3], in assay [4] and in assay [5] was > 30 µM (inactive) in each case. Moreover, the Kd (in assay [9]; in assay [6]; in assay [7]; on DNA topoisomerase 2-beta) was > 30 µM (inactive) throughout.
With `CNC(=O)c1ccccc1Sc1ccc2c(/C=C/c3ccccn3)n[nH]c2c1` [AXITINIB], the Kd was 0.188 µM (active) in assay [1]; > 30 µM (inactive) in [8]; > 30 µM (inactive) in assay [9]; > 30 µM (inactive) in assay [6]; > 30 µM (inactive) in [7]; > 30 µM (inactive) at DNA topoisomerase 2-beta.
As to `CC(C)(C)c1nc(-c2cccc(NS(=O)(=O)c3c(F)cccc3F)c2F)c(-c2ccnc(N)n2)s1` [DABRAFENIB], the Kd in [1] was > 30 µM (inactive); in assay [8] it was > 30 µM (inactive); in assay [3] it was > 30 µM (inactive); in [4], 0.053 µM (active); in assay [9] it was > 30 µM (inactive); in assay [6], > 30 µM (inactive). The Kd (in assay [7]; on DNA topoisomerase 2-beta) was > 30 µM (inactive) each time.
Turning to `Cn1cc(C2=C(c3cn(C4CCN(Cc5ccccn5)CC4)c4ccccc34)C(=O)NC2=O)c2ccccc21` [ENZASTAURIN], the Kd (in assay [1]; in [8]; in assay [6]; in assay [7]; at DNA topoisomerase 2-beta) was > 30 µM (inactive) each time.
On to `C[C@@H](Oc1cc(-n2cnc3ccc(CN4CCN(C)CC4)cc32)sc1C(N)=O)c1ccccc1C(F)(F)F` [GSK-461364], for which the Kd (in assay [1]; in assay [8]; in [9]; in assay [6]; in assay [7]; on DNA topoisomerase 2-beta) was > 30 µM (inactive) in each case.
Regarding `CNC(=O)c1nn(C)c2c1C(C)(C)Cc1cnc(Nc3ccc(N4CCN(C)CC4)cc3)nc1-2` [MILCICLIB], the equilibrium dissociation constant (Kd) is 0.685 µM (active) in assay [1]; > 30 µM (inactive) in [2]; > 30 µM (inactive) in assay [3]; 19.6 µM (active) in [4]; > 30 µM (inactive) in [5]; > 30 µM (inactive) in assay [9]. For the same compound, the Kd (in assay [6]; in assay [7]; at DNA topoisomerase 2-beta) was > 30 µM (inactive) throughout.
On to `Cc1[nH]c(/C=C2\C(=O)Nc3ccccc32)c(C)c1CCC(=O)O` [ORANTINIB], for which the Kd in assay [1], in [8], in assay [2], in assay [3], in [4] and in assay [5] was > 30 µM (inactive) in each case. Further, the Kd (in [9]; in assay [7]; at DNA topoisomerase 2-beta) was > 30 µM (inactive) throughout.
As to `NC(=O)c1c(OCc2c(F)cc(Br)cc2F)nsc1NC(=O)NCCCCN1CCCC1` [OSI-632], the Kd in assay [1] is 2.6 µM (active); in assay [8], > 30 µM (inactive); in assay [2], > 30 µM (inactive); in assay [3], > 30 µM (inactive); in assay [4], > 30 µM (inactive); in [9], > 30 µM (inactive). Moreover, the Kd (in assay [6]; in [7]; on DNA topoisomerase 2-beta) was > 30 µM (inactive) throughout.
With `CC(=O)NCC(=O)N1[C@@H]2CC[C@H]1c1ccc(Nc3ncc(C(F)(F)F)c(NC4CCC4)n3)cc12` [PF-03814735], the Kd in [1] was 10.8 µM (active); in assay [2] it was > 30 µM (inactive); in [3], > 30 µM (inactive); in assay [4] it was > 30 µM (inactive); in [5], > 30 µM (inactive); in [9], > 30 µM (inactive). In addition, the Kd (in assay [6]; in [7]; at DNA topoisomerase 2-beta) was > 30 µM (inactive) in each case.
For the compound `O=C(NOCCO)c1cc(CN2OCCCC2=O)c(F)c(F)c1Nc1ccc(I)cc1F` [RO-4987655], the Kd (in assay [1]; in assay [8]; in assay [9]; in assay [6]; in assay [7]; on DNA topoisomerase 2-beta) was > 30 µM (inactive) each time.
Consider `N#CC[C@H](C1CCCC1)n1cc(-c2ncnc3[nH]ccc23)cn1` [RUXOLITINIB], for which the Kd in assay [1] was > 30 µM (inactive); in [8] it was > 30 µM (inactive); in assay [9], 16.5 µM (active); in assay [7], > 30 µM (inactive); on DNA topoisomerase 2-beta, > 30 µM (inactive).
